# Data: PMC5580309, “Molecular-scale features that govern the effects of O-glycosylation on a carbohydrate-binding module” (Chemical Science, 2015)
# Bridge positions count the residues as written; N and C are the ends. Peptide text beside a SMILES is read from it. * marks the point of attachment. X1 = OC[C@H]1O[C@H](OC[C@H]2O[C@H](*)[C@@H](O)[C@@H](O)[C@@H]2O)[C@@H](O)[C@@H](O)[C@@H]1O; αGalNAc = CC(=O)N[C@@H]1[C@@H](O)[C@@H](O)[C@@H](CO)O[C@@H]1*; βGlcNAc = CC(=O)N[C@@H]1[C@@H](O)[C@H](O)[C@@H](CO)O[C@H]1*; βGlc = OC[C@H]1O[C@@H](*)[C@H](O)[C@@H](O)[C@@H]1O; βGal = OC[C@H]1O[C@@H](*)[C@H](O)[C@@H](O)[C@H]1O; X6 = C[C@@H]1O[C@@H](*)[C@@H](O)[C@H](O)[C@@H]1O; X9 = OC[C@H]1O[C@H](*)[C@H](O)[C@@H](O)[C@H]1O
# Molecular target: T1, thermolysin (Bacillus thermoproteolyticus, UniProt P00800)
# T1 sequence (P00800 233-548): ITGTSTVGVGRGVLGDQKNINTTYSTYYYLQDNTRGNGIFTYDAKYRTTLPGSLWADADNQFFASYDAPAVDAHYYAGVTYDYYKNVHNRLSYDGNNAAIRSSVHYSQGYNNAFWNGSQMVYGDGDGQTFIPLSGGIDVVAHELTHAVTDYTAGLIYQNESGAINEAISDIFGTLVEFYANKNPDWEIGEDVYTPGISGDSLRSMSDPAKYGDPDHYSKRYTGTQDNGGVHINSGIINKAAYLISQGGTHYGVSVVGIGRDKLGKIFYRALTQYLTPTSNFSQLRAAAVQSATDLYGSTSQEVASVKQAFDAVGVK
# Test: Proteolytic stability: half-life to thermolysin degradation
# Type: in vitro ADME
# Conditions: for Change in Half-Life to Thermolysin Degradation: glyco-variant minus its corresponding unglycosylated CBM (e.g. 2-1), *** not used in the correlation plot; for half-life: thermolysin (isolated protease), thermolysin degradation, mean of three trials ± SD, procedures as described previously (ESI ref 18)
# Method: All error bars reported are standard deviations of data achieved from three separate trials.
# cellulose that were determined in accordance with our procedures as described previously 18.
# The results are presented as mean of three trials ± SD. *Denotes an averaged value of four trials
smiles,measurement,value
"CC[C@H](C)[C@@H]1NC(=O)CNC(=O)CNC(=O)[C@@H](NC(=O)[C@H](CCC(N)=O)NC(=O)CNC(=O)[C@H](Cc2ccc(O)cc2)NC(=O)[C@H](Cc2c[nH]cn2)NC(=O)[C@H](CO[C@@H]2O[C@H](CO)[C@@H](O)[C@H](O)[C@H]2NC(C)=O)NC(=O)[C@H](CCC(N)=O)NC(=O)[C@@H](N)[C@@H](C)O)CSSC[C@@H]2NC(=O)[C@H]([C@@H](C)O)NC(=O)[C@H]([C@@H](C)O)NC(=O)CNC(=O)[C@H](CO)NC(=O)[C@H](C)NC(=O)[C@H](CSSC[C@@H](C(=O)N[C@@H](CC(C)C)C(=O)O)NC(=O)[C@H](CCC(N)=O)NC(=O)[C@H](CO)NC(=O)[C@H](Cc3ccc(O)cc3)NC(=O)[C@H](Cc3ccc(O)cc3)NC(=O)[C@@H]3CCCN3C(=O)[C@H](CC(N)=O)NC(=O)[C@H](CC(C)C)NC(=O)[C@H](C(C)C)NC(=O)[C@H](CCC(N)=O)NC2=O)NC(=O)[C@H](C(C)C)NC(=O)[C@H]([C@@H](C)O)NC(=O)[C@@H]2CCCN2C(=O)CNC(=O)[C@H](CO)NC(=O)[C@H](Cc2ccc(O)cc2)NC(=O)CNC1=O [CBM variant 23] (H-TQS(βGlcNAc)HYGQCGGIGYSGPTVCASGTTCQVLNPYYSQCL-OH; disulfide 8-25, 19-35)",Change in Half-Life to Thermolysin Degradation,5.4 min
same,half-life,19.2 ± 0.6 min
"CC[C@H](C)[C@@H]1NC(=O)CNC(=O)CNC(=O)[C@@H](NC(=O)[C@H](CCC(N)=O)NC(=O)CNC(=O)[C@H](Cc2ccc(O)cc2)NC(=O)[C@H](Cc2c[nH]cn2)NC(=O)[C@H](CO[C@@H]2O[C@H](CO)[C@@H](O)[C@H](O)[C@H]2O)NC(=O)[C@H](CCC(N)=O)NC(=O)[C@@H](N)[C@@H](C)O)CSSC[C@@H]2NC(=O)[C@H]([C@@H](C)O)NC(=O)[C@H]([C@@H](C)O)NC(=O)CNC(=O)[C@H](CO)NC(=O)[C@H](C)NC(=O)[C@H](CSSC[C@@H](C(=O)N[C@@H](CC(C)C)C(=O)O)NC(=O)[C@H](CCC(N)=O)NC(=O)[C@H](CO)NC(=O)[C@H](Cc3ccc(O)cc3)NC(=O)[C@H](Cc3ccc(O)cc3)NC(=O)[C@@H]3CCCN3C(=O)[C@H](CC(N)=O)NC(=O)[C@H](CC(C)C)NC(=O)[C@H](C(C)C)NC(=O)[C@H](CCC(N)=O)NC2=O)NC(=O)[C@H](C(C)C)NC(=O)[C@H]([C@@H](C)O)NC(=O)[C@@H]2CCCN2C(=O)CNC(=O)[C@H](CO)NC(=O)[C@H](Cc2ccc(O)cc2)NC(=O)CNC1=O [CBM variant 24] (H-TQS(βGlc)HYGQCGGIGYSGPTVCASGTTCQVLNPYYSQCL-OH; disulfide 8-25, 19-35)",Change in Half-Life to Thermolysin Degradation,3 min
same,half-life,16.8 ± 1.8 min
"CC[C@H](C)[C@@H]1NC(=O)CNC(=O)CNC(=O)[C@@H](NC(=O)[C@H](CCC(N)=O)NC(=O)CNC(=O)[C@H](Cc2ccc(O)cc2)NC(=O)[C@H](Cc2c[nH]cn2)NC(=O)[C@H](CO[C@H]2O[C@H](CO)[C@H](O)[C@H](O)[C@H]2NC(C)=O)NC(=O)[C@H](CCC(N)=O)NC(=O)[C@@H](N)[C@@H](C)O)CSSC[C@@H]2NC(=O)[C@H]([C@@H](C)O)NC(=O)[C@H]([C@@H](C)O)NC(=O)CNC(=O)[C@H](CO)NC(=O)[C@H](C)NC(=O)[C@H](CSSC[C@@H](C(=O)N[C@@H](CC(C)C)C(=O)O)NC(=O)[C@H](CCC(N)=O)NC(=O)[C@H](CO)NC(=O)[C@H](Cc3ccc(O)cc3)NC(=O)[C@H](Cc3ccc(O)cc3)NC(=O)[C@@H]3CCCN3C(=O)[C@H](CC(N)=O)NC(=O)[C@H](CC(C)C)NC(=O)[C@H](C(C)C)NC(=O)[C@H](CCC(N)=O)NC2=O)NC(=O)[C@H](C(C)C)NC(=O)[C@H]([C@@H](C)O)NC(=O)[C@@H]2CCCN2C(=O)CNC(=O)[C@H](CO)NC(=O)[C@H](Cc2ccc(O)cc2)NC(=O)CNC1=O [CBM variant 25] (H-TQS(αGalNAc)HYGQCGGIGYSGPTVCASGTTCQVLNPYYSQCL-OH; disulfide 8-25, 19-35)",Change in Half-Life to Thermolysin Degradation,9 min
same,half-life,22.8 ± 3 min
"CC[C@H](C)[C@@H]1NC(=O)CNC(=O)CNC(=O)[C@@H](NC(=O)[C@H](CCC(N)=O)NC(=O)CNC(=O)[C@H](Cc2ccc(O)cc2)NC(=O)[C@H](Cc2c[nH]cn2)NC(=O)[C@H](CO[C@H]2O[C@H](CO)[C@H](O)[C@H](O)[C@H]2O)NC(=O)[C@H](CCC(N)=O)NC(=O)[C@@H](N)[C@@H](C)O)CSSC[C@@H]2NC(=O)[C@H]([C@@H](C)O)NC(=O)[C@H]([C@@H](C)O)NC(=O)CNC(=O)[C@H](CO)NC(=O)[C@H](C)NC(=O)[C@H](CSSC[C@@H](C(=O)N[C@@H](CC(C)C)C(=O)O)NC(=O)[C@H](CCC(N)=O)NC(=O)[C@H](CO)NC(=O)[C@H](Cc3ccc(O)cc3)NC(=O)[C@H](Cc3ccc(O)cc3)NC(=O)[C@@H]3CCCN3C(=O)[C@H](CC(N)=O)NC(=O)[C@H](CC(C)C)NC(=O)[C@H](C(C)C)NC(=O)[C@H](CCC(N)=O)NC2=O)NC(=O)[C@H](C(C)C)NC(=O)[C@H]([C@@H](C)O)NC(=O)[C@@H]2CCCN2C(=O)CNC(=O)[C@H](CO)NC(=O)[C@H](Cc2ccc(O)cc2)NC(=O)CNC1=O [CBM variant 26] (H-TQS(X9)HYGQCGGIGYSGPTVCASGTTCQVLNPYYSQCL-OH; disulfide 8-25, 19-35)",Change in Half-Life to Thermolysin Degradation,16.2 min
same,half-life,30 ± 3 min
"CC[C@H](C)[C@@H]1NC(=O)CNC(=O)CNC(=O)[C@@H](NC(=O)[C@H](CCC(N)=O)NC(=O)CNC(=O)[C@H](Cc2ccc(O)cc2)NC(=O)[C@H](Cc2c[nH]cn2)NC(=O)[C@H](CO[C@@H]2O[C@H](CO)[C@H](O)[C@H](O)[C@H]2O)NC(=O)[C@H](CCC(N)=O)NC(=O)[C@@H](N)[C@@H](C)O)CSSC[C@@H]2NC(=O)[C@H]([C@@H](C)O)NC(=O)[C@H]([C@@H](C)O)NC(=O)CNC(=O)[C@H](CO)NC(=O)[C@H](C)NC(=O)[C@H](CSSC[C@@H](C(=O)N[C@@H](CC(C)C)C(=O)O)NC(=O)[C@H](CCC(N)=O)NC(=O)[C@H](CO)NC(=O)[C@H](Cc3ccc(O)cc3)NC(=O)[C@H](Cc3ccc(O)cc3)NC(=O)[C@@H]3CCCN3C(=O)[C@H](CC(N)=O)NC(=O)[C@H](CC(C)C)NC(=O)[C@H](C(C)C)NC(=O)[C@H](CCC(N)=O)NC2=O)NC(=O)[C@H](C(C)C)NC(=O)[C@H]([C@@H](C)O)NC(=O)[C@@H]2CCCN2C(=O)CNC(=O)[C@H](CO)NC(=O)[C@H](Cc2ccc(O)cc2)NC(=O)CNC1=O [CBM variant 27] (H-TQS(βGal)HYGQCGGIGYSGPTVCASGTTCQVLNPYYSQCL-OH; disulfide 8-25, 19-35)",Change in Half-Life to Thermolysin Degradation,3.6 min
same,half-life,17.4 ± 1.2 min
"CC[C@H](C)[C@@H]1NC(=O)CNC(=O)CNC(=O)[C@@H](NC(=O)[C@H](CCC(N)=O)NC(=O)CNC(=O)[C@H](Cc2ccc(O)cc2)NC(=O)[C@H](Cc2c[nH]cn2)NC(=O)[C@H](CO[C@@H]2O[C@@H](C)[C@@H](O)[C@@H](O)[C@@H]2O)NC(=O)[C@H](CCC(N)=O)NC(=O)[C@@H](N)[C@@H](C)O)CSSC[C@@H]2NC(=O)[C@H]([C@@H](C)O)NC(=O)[C@H]([C@@H](C)O)NC(=O)CNC(=O)[C@H](CO)NC(=O)[C@H](C)NC(=O)[C@H](CSSC[C@@H](C(=O)N[C@@H](CC(C)C)C(=O)O)NC(=O)[C@H](CCC(N)=O)NC(=O)[C@H](CO)NC(=O)[C@H](Cc3ccc(O)cc3)NC(=O)[C@H](Cc3ccc(O)cc3)NC(=O)[C@@H]3CCCN3C(=O)[C@H](CC(N)=O)NC(=O)[C@H](CC(C)C)NC(=O)[C@H](C(C)C)NC(=O)[C@H](CCC(N)=O)NC2=O)NC(=O)[C@H](C(C)C)NC(=O)[C@H]([C@@H](C)O)NC(=O)[C@@H]2CCCN2C(=O)CNC(=O)[C@H](CO)NC(=O)[C@H](Cc2ccc(O)cc2)NC(=O)CNC1=O [CBM variant 28] (H-TQS(X6)HYGQCGGIGYSGPTVCASGTTCQVLNPYYSQCL-OH; disulfide 8-25, 19-35)",Change in Half-Life to Thermolysin Degradation,23.4 min
same,half-life,37.2 ± 6.6 min
"CC[C@H](C)[C@@H]1NC(=O)CNC(=O)CNC(=O)[C@@H](NC(=O)[C@H](CCC(N)=O)NC(=O)CNC(=O)[C@H](Cc2ccc(O)cc2)NC(=O)[C@H](Cc2c[nH]cn2)NC(=O)[C@H](CO[C@H]2O[C@H](CO[C@H]3O[C@H](CO)[C@@H](O)[C@H](O)[C@@H]3O)[C@@H](O)[C@H](O)[C@@H]2O)NC(=O)[C@H](CCC(N)=O)NC(=O)[C@@H](N)[C@@H](C)O)CSSC[C@@H]2NC(=O)[C@H]([C@@H](C)O)NC(=O)[C@H]([C@@H](C)O)NC(=O)CNC(=O)[C@H](CO)NC(=O)[C@H](C)NC(=O)[C@H](CSSC[C@@H](C(=O)N[C@@H](CC(C)C)C(=O)O)NC(=O)[C@H](CCC(N)=O)NC(=O)[C@H](CO)NC(=O)[C@H](Cc3ccc(O)cc3)NC(=O)[C@H](Cc3ccc(O)cc3)NC(=O)[C@@H]3CCCN3C(=O)[C@H](CC(N)=O)NC(=O)[C@H](CC(C)C)NC(=O)[C@H](C(C)C)NC(=O)[C@H](CCC(N)=O)NC2=O)NC(=O)[C@H](C(C)C)NC(=O)[C@H]([C@@H](C)O)NC(=O)[C@@H]2CCCN2C(=O)CNC(=O)[C@H](CO)NC(=O)[C@H](Cc2ccc(O)cc2)NC(=O)CNC1=O [CBM variant 29] (H-TQS(X1)HYGQCGGIGYSGPTVCASGTTCQVLNPYYSQCL-OH; disulfide 8-25, 19-35)",Change in Half-Life to Thermolysin Degradation,37.8 min
same,half-life,51.6 ± 1.8 min
